In patent US11440932B2, “Surfactant compounds-clips for extraction and stabilization in solution of membrane proteins” (CENTRE NATIONAL DE LA RECHERCHE SCIENTIFIQUE, priority 2017, dated 2022):

Tests used:
AcrB = biological target: T1, AcrB (Escherichia coli, UniProt P31224); assay: Extraction of AcrB from membranes (SDS-PAGE of supernatant); design: species or system bacterial; same expression system (E. coli C41DE3); settings: detergent 10 g/l unless indicated otherwise; 2 h at 4° C.
T1 construct: made in house; host or cells: E. coli C41(DE3)
Protocol: (§1) FIG. 6 depicts the extraction of the membrane proteins BmrA (panels A and C) and AcrB (panels B and D) using commercial detergents and the molecules of the invention (panels A and B, from left to right): SDS, DDM, FC12, TX100, compounds of the invention 1.4, 1.5, 2.3a, 2.3b, 2.3c, 2.3d, 2.3e, 2.3f, 2.3g, 2.3h, 2.3i, 3.7a, 3.7b; panel C: compounds of the invention 3.7c 0.8%, 3.7d 0.16%, 3.7e 0.8%, 3.7f 0.3%, 3.7g 0.4%, 3.7h 0.2%, 3.7i 0.07%, 3.7j 0.09%, 3.7k, 3.7l, 0.25%, 3.9a, 4.5a, 4.5b, 4.5c, 4.5d 0.34%, 4.6a, 4.6b, 4.6c, 4.6d, 5.3a, 5.3b, 5.3c 0.3%, 5.3d 0.3%; panel D: 3.7c, 3.7d, 3.7e, 3.7f, 3.7h, 3.7i 0.1%, 3.7j, 3.7k, 3.7l, 3.9a, 4.5a, 4.5b, 4.5c, 4.5d, 4.6a, 4.6b, 4.6c, 4.6d. The detergents are added at 10 g/l (1%), unless indicated otherwise. The equivalent of 20 μg of proteins of the extracted fraction after centrifugation at 100 000×g for 30 min is deposited on 10% SDS-PAGE, stained with Coomassie blue after migration. BmrA migrates in its monomeric form to the level of the 55 kDa band; AcrB migrates in its monomeric form to the level of the 100 kDa band. SDS=sodium dodecyl sulfate; DDM=β-D-dodecyl maltoside; FC12=foscholine-12; TX100=triton X-100.
(§2) The extraction capacity of the detergents of the series is tested on membranes in which BmrA or AcrB are strongly expressed. The extraction with the clips (molecules of the invention) is compared to that obtained with commercial detergents, used as reference.
(§3) Procedure. BmrA represents 25% of the proteins present in the overexpression system used (E. coli, C41DE3). These membranes are prepared as described previously (Matar-Merheb, R. et al. ([11])). The membranes containing AcrB (approximately 20% of the membrane proteins, same expression system as BmrA) were prepared as described previously (Seeger, M. A. et al. ([21])). The detergents are used at 10 g/l unless indicated otherwise, and the proteins diluted at 2 g/l in a 20 mM Tris-HCl buffer, pH 8.0, 100 mM NaCl, 15% glycerol, with protease inhibitors (Roche) added thereto at an amount of one tablet/100 ml. The mixture (T) is incubated for 2 h at 4° C. then centrifuged for 1 h at 4° C. at 100 000×g in order to separate the extracted fraction (supernatant, S) from that which is not extracted (pellet). The supernatants are deposited on 10% SDS-PAGE and stained with Coomassie blue after migration. The foscholine 12, DDM and LMNG originate from Anatrace, the SDS and Triton X100 originate from Sigma-Aldrich.

BmrA [1] = biological target: T2, BmrA (Bacillus subtilis, UniProt O06967); assay: Extraction of BmrA from membranes (SDS-PAGE of supernatant); design: species or system bacterial; overexpressed in E. coli C41DE3; settings: detergent 10 g/l unless indicated otherwise; 2 h at 4° C.
T2 construct: His tag; made in house; host or cells: E. coli C41(DE3)
Protocol: as §1, §2, §3

[2] = Critical micelle concentration (CMC) by DPH fluorescence; format: physicochemical; settings: for CMC: 50 mM tris-HCl, pH 8.0
Protocol: FIG. 4 represents the fluorescence (%) of DPH (1,6-diphenyl-1,3,5-hexatriene) in the presence of increasing concentrations (0.0001 mM, 0.001 mM, 0.01 mM, 0.1 mM, 1 mM and 10 mM) of clips (compounds of the invention), exemplified with the compounds #3.7e (C13, points represented by squares) and 3.7f (C18, points represented by circles). The experiment is carried out in triplicates. In accordance with Chattopadhyay, A. & London, E ([22]), the CMC corresponds to the concentration at which the breakage in the slope is observed, here at 20 μM for 3.7f and 2 mM for 3.7e (black symbols).
Procedure. The molecules of the invention were prepared in a range of concentrations extending from 0.1 μM to 10 mM in 50 mM tris-HCl, pH 8.0 and neutralized at this pH. To 80 μl of each solution (triplicate), the same volume of 10 μM of 1,6-diphenyl-1,3,5-hexatriene (DPH, Sigma, D208000) is added, prepared at 100 μM in tetrahydrofuran then diluted 10-fold in H2O. The increase in the fluorescence of the DPH occurs when the latter find micelles of clips into which it can insert itself (Chattopadhyay, A. & London, E. Fluorimetric determination of critical micelle concentration avoiding interference from detergent charge. Anal Biochem 139, 408-412 (1984) ([22])). The fluorescence is read with a Xenius SAFAS fluorimeter by exciting at 358 nm and recording the fluorescence emission at 430 nm, with slits of 9 to 10 nm for the excitation and the emission and a gain of 100 to 150, depending on the cases.
Results. The CMC of the detergents is the concentration starting from which they associate with one another to form micelles, in which, in aqueous solution, the hydrophobic portions are grouped together at the center and the hydrophilic regions are exposed to the solvent. […] A typical result obtained with a compound 3.7 provided with a C13 (3.7e) or C18 ([…]) aliphatic chain is illustrated in FIG. 4.

[3] = Diameter of micelles by dynamic light scattering (DLS); format: physicochemical; settings: estimated micelle diameter by DLS; 30 mM tris-HCl, pH 8.0
Protocol: FIG. 5 depicts the dynamic light scattering (DLS) of clips, in intensity (%, column A on the left) and in number (%, column B on the right), as a function of the […] (nm). The estimated diameters are indicated on each panel (column A). Columns A and B, from top to bottom: compound 3.7c (10 mM, 5×CMC), compound 3.7d (10 mM, 5×CMC), compound 3.7e (2 mM, […]), compound 3.7f (10 mM, 500×CMC), compound 3.7h (1 mM, 100×CMC), compound 3.7j (2 mM, 100×CMC), compound 3.9a (1 mM, 50×CMC).
Another physicochemical parameter of the micelles of detergents is their diameter, assuming that they are spherical. This dimension is obtained by the light scattering (DLS) technique.
Procedure. The molecules of the invention tested were prepared in a range of concentrations extending from 0.1 to 1000×CMC in 30 mM tris-HCl, pH 8.0 and neutralized at this pH. The solutions are filtered on 0.22 μm. The measurement is carried out on 100 μl, in triplicate on a Zetasizer Nano-S from Malvern Instruments.

BmrA [4] = biological target: T2, BmrA; assay: Size exclusion chromatography of BmrA after detergent exchange; settings: Superdex 200 5/150, 2 CMC of detergent, 0.3 ml/min
Protocol: The membrane fraction was extracted and purified in DDM by Ni-NTA metal affinity and Superdex 200 size exclusion, before being reloaded on Ni-NTA in order to exchange the DDM either with itself or with the compound 3.7c. Each pool was subsequently loaded onto a 3 ml Superdex S200 5/150 size exclusion column and eluted in the presence of 2 CMC of the same detergent, as indicated. The proteins are detected by absorbance at 280 nm.
The capacity of the compounds of the invention to maintain the membrane proteins in a native state was exemplified with the compound 3.7c of the invention, monitored by size exclusion chromatography and compared to the reference detergent DDM.
Procedure: BmrA was extracted in DDM and purified by Ni-NTA affinity chromatography as described in example 13, then loaded onto a Superdex 200 10/300 size exclusion column and eluted with 50 mM Hepes-HCl pH 8.0, 100 mM NaCl, 0.4 mM DDM (2×CMC). The fractions containing BmrA were pooled and separated into several aliquots (˜100 μg) kept at 4° C. One aliquot was subsequently reloaded onto an affinity column containing 1 ml of resin. The DDM was then exchanged against 10 volumes of Hepes-NaCl buffer containing either 2 CMC of DDM (control experiment) or 2 CMC of compound 3.7c (2 mM). BmrA was subsequently eluted in the respective buffers with 100 mM of imidazole added. The fractions containing the proteins were combined and concentrated on 50 kDa amicon (regenerated cellulose) to 50 μl, and were then deposited on a 3 ml Superdex 200 5/150 size exclusion column, equilibrated in 50 mM Hepes-HCl pH 8.0, 100 mM NaCl, and 2 CMC of DDM (0.4 mM) or 3.7c (2 mM). The elution was subsequently carried out at 0.3 ml/min in the respective buffers and the BmrA detected at 280 nm.

T1 sequence (P31224 whole entry): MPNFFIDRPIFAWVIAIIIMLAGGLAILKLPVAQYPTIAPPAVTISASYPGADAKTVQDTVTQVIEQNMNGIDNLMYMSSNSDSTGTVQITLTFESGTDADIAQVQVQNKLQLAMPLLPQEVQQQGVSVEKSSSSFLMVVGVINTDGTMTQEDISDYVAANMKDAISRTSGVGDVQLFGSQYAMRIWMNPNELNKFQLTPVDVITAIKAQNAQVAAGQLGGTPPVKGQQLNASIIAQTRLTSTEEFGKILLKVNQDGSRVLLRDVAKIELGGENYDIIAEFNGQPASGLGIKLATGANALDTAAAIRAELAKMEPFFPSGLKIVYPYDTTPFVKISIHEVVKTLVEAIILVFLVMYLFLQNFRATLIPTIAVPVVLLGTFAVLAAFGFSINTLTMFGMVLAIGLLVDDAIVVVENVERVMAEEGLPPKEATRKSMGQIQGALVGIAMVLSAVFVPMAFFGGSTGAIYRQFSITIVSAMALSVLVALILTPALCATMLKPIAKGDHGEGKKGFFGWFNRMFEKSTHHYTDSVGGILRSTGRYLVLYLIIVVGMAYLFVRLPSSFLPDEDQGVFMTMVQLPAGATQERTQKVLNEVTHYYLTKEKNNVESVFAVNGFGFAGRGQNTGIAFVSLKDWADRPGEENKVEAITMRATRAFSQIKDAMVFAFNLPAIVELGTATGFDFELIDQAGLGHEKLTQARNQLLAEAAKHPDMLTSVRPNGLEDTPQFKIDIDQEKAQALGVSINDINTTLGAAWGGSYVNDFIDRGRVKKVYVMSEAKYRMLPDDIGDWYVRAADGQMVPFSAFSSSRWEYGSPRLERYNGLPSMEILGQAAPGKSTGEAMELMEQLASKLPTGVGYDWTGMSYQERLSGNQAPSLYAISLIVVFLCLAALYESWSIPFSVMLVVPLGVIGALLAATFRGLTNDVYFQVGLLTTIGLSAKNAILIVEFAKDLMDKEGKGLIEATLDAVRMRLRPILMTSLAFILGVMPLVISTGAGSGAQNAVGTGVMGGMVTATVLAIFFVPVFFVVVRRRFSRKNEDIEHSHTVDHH
T2 sequence (O06967 whole entry): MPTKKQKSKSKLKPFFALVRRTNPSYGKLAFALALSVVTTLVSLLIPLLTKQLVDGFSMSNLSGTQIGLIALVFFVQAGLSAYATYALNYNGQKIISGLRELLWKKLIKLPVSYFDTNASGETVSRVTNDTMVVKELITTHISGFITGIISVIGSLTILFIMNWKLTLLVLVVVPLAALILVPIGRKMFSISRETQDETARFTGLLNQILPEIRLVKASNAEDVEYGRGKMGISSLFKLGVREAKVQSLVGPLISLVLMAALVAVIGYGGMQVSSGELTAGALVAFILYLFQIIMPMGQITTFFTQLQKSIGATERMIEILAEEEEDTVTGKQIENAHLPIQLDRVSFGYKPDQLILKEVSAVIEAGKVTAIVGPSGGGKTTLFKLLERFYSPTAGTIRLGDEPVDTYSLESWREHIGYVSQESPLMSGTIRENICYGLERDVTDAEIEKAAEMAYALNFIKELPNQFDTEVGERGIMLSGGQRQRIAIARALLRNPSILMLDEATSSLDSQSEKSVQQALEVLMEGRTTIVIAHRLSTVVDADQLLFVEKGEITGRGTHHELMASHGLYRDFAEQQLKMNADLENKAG

CCCCCCCCCCCCCCCCCCC(=O)N[C@@H](COCc1cn(CCO[C@@H]2OC(CO)[C@@H](O)C(O)C2O)nn1)C(=O)N[C@H](CCC(=O)O)C(=O)O (stereo partly shown) [Compound 3.7d]
extraction of AcrB (AcrB): extracting
extraction of BmrA (BmrA [1]): partially extracting
CMC [2]: 0.02 mM
Ø, nm [3]: 5.5 nm

CCCCCCCCCCCCCCCCCCC(=O)N[C@@H](COCc1cn(CCO[C@@H]2OC(CO)[C@@H](O[C@H]3OC(CO)[C@@H](O)C(O)C3O)C(O)C2O)nn1)C(=O)N[C@H](CCC(=O)O)C(=O)O (stereo partly shown) [Compound 3.7f]
extraction of AcrB (AcrB): extracting
extraction of BmrA (BmrA [1]): extracting
CMC [2]: 0.02 mM
CMC (breakage in the slope of DPH fluorescence, FIG. 4) ([2]; triplicates): 20 µM
Ø, nm [3]: 4.0 nm

CCCCCCCCCCCCCCCCCCC(=O)N[C@@H](COCc1cn(CCOCCOCCOCCOCCOCCOC)nn1)C(=O)N[C@H](CCC(=O)O)C(=O)O [Compound 3.7h]
extraction of AcrB (AcrB): extracting
extraction of BmrA (BmrA [1]): extracting
CMC [2]: 0.01 mM
Ø, nm [3]: 3-4 nm

CCCCCCCCCCCCO[C@@H]1O[C@H](CO)[C@@H](O[C@H]2O[C@H](CO)[C@@H](O)[C@H](O)[C@H]2O)[C@H](O)[C@H]1O [DDM, n-dodecyl β-d-maltoside, reference compound]
extraction of AcrB (AcrB): solubilize
elution volume of BmrA (BmrA [4]): ~1.6 mL
extraction of BmrA (BmrA [1]): solubilize
